# From ChEMBL document CHEMBL1149222, “Synthesis and in vitro antimycobacterial activity of novel 3-(1H-pyrrol-1-yl)-2-oxazolidinone analogues of PNU-100480” (2004)
# Experiments:
# Format in all cases: functional
# MT4 = test: Cytotoxicity of compound against mock-infected MT-4 cells was evaluated by MTT assay; settings: Homo sapiens
# Mycobacterium [1] = test: In vitro anti-mycobacterial activity against Mycobacterium avium complex was determined
# Mycobacterium [2] = test: (§1) In vitro anti-mycobacterial activity against Mycobacterium smegmatis determined by the MTT method
# [3] = tested on: Mycolicibacterium smegmatis; test: as §1
# [4] = tested on: Mycobacterium tuberculosis; test: In vitro anti-mycobacterial activity against Mycobacterium tuberculosis ATCC 27294 was determined
# [5] = tested on: Mycobacterium tuberculosis; test: In vitro anti-mycobacterial activity against Mycobacterium tuberculosis C.I. 1104 was determined
# [6] = tested on: Mycolicibacterium fortuitum; test: In vitro anti-mycobacterial activity against Mycobacterium fortuitum was determined
# [7] = tested on: Mycolicibacterium smegmatis; test: In vitro anti-mycobacterial activity against Mycobacterium smegmatis was determined
# [8] = tested on: Mycobacterium tuberculosis; test: In vitro anti-mycobacterial activity against Mycobacterium tuberculosis ATCC 27294, determined by the MTT method
# [9] = tested on: Mycobacterium tuberculosis; test: In vitro anti-mycobacterial activity against Mycobacterium tuberculosis C.I. 1104, determined by the MTT method
# [10] = tested on: Mycolicibacterium fortuitum; test: In vitro anti-mycobacterial activity against Mycobacterium fortuitum determined by the MTT method
Structure (SMILES),CC50 (MT4),MIC50 (Mycobacterium [1]),MIC90 (Mycobacterium [2]),MIC90 [3],MIC50 [4],MIC50 [5],MIC50 [6],MIC50 [7],MIC90 [8],MIC90 [9],MIC90 [10]
CC(=O)NC[C@H]1CN(c2ccn(-c3ccc(N4CCOCC4)c(F)c3)c2)C(=O)O1,> 100 µM,16.5 µM,100 µM,> 100 µM,12.9 µM,49 µM,> 100 µM,42.6 µM,100 µM,> 100 µM,
CC(=O)NC[C@H]1CN(c2ccn(N3CCOCC3)c2)C(=O)O1,> 100 µM,> 100 µM,,,> 100 µM,> 100 µM,> 1000 µM,> 100 µM,,,
CC(=O)NC[C@H]1CN(c2ccn(-c3ccccc3)c2)C(=O)O1,> 100 µM,4 µM,32.8 µM,41.3 µM,19 µM,10.5 µM,> 100 µM,9.8 µM,74 µM,77.8 µM,
CC(=O)NC[C@H]1CN(c2ccn(-c3ccc(F)cc3)c2)C(=O)O1,100 µM,1.4 µM,5.8 µM,45.8 µM,1.9 µM,,> 100 µM,10.3 µM,19.7 µM,,
CC(=O)NC[C@H]1CN(c2ccn(-c3ccccc3F)c2)C(=O)O1,33.3 µM,2 µM,8.9 µM,15.7 µM,3.6 µM,,88.6 µM,4.2 µM,24.7 µM,,> 100 µM
NNC(=O)c1ccncc1 [ISONIAZID],> 100 µM,1.4 µM,4.7 µM,6.7 µM,0.09 µM,0.06 µM,> 100 µM,1.8 µM,9.8 µM,0.2 µM,
CC(=O)NC[C@H]1CN(c2ccn(-c3cccc(F)c3)c2)C(=O)O1,> 100 µM,4.6 µM,39.8 µM,56.3 µM,12.9 µM,9.4 µM,> 100 µM,14.5 µM,91.4 µM,76.9 µM,
CC(=O)NC[C@H]1CN(c2ccn(-c3ccc(N4CCSCC4)c(F)c3)c2)C(=O)O1,20 µM,4.8 µM,11.8 µM,> 100 µM,9.8 µM,12.2 µM,> 100 µM,34 µM,25 µM,31 µM,
CC(=O)NC[C@H]1CN(c2ccc(N3CCSCC3)c(F)c2)C(=O)O1 [SUTEZOLID],> 100 µM,0.7 µM,5 µM,1.6 µM,0.1 µM,0.5 µM,> 100 µM,0.5 µM,0.9 µM,2.5 µM,
